We go through one compound from US12161607B2, “Combination of cannabinoids in the treatment of leukemia” (Jazz Pharmaceuticals Research UK Limited, priority 2017, dated 2024).

Read-outs that look alike come from different tables or passages of the source.

The experiment deals with HL60 cell line. As to the kind of experiment: Combination study, modulatory effect: IC50 of chemotherapy drug without and with cannabinoid-pair (72 h). Format: cell-based. Conditions: Homo sapiens, HL-60, 72 h, HL60, 72 h, read-out: IC50 for percentage cell viability. The protocol: FIG. 2. Sensitising chemotherapy action with low doses of cannabinoids. […] The effect of a low dose of CBD/THC or CBD/CBG on the activity of CYT and VIN was also assessed. IC50 values for percentage cell viability were determined by emax models.
Cytarabine (CYT), (Sigma) and vincristine (VIN), (Sigma) were reconstituted in PBS at a stock concentration of 10 mM, and kept at −20° C. for no more than four weeks.
The ability of cannabinoids to modify the efficacy CYT and VIN was studied by assessing and comparing the IC50 of the anti-leukaemia drugs in the absence and presence of the cannabinoids.
The cannabinoids tested were CBD+CBG and CBD+THC, and these were used at a single total sub-optimal concentration of 1 μM in CEM and 5 μM HL60.
Drugs were added (CYT and VIN over a range of concentrations) and cell number determined after 72 h.
The ability of a sub-effective concentration of cannabinoid to alter the efficacy of CYT or VIN was determined by comparing the IC50s of the chemotherapy agents in the absence or presence of the cannabinoid-pair.

By IC50 is commonly meant the concentration that gives 50% inhibition. In the case of `Nc1ccn([C@@H]2O[C@H](CO)[C@@H](O)[C@@H]2O)c(=O)n1` [cytarabine, Cytarabine], the IC50 reads like this: (CBD+CBG added (sub-optimal total 5 μM in HL60)) 150 nM; (CBD+THC added (sub-optimal total 5 μM in HL60)) 8 nM; (chemotherapy drug alone) 100 nM.
